Among the test systems are ACHN renal; RPMI-8226 leukemia; NCI-H460 lung; T-47D breast; NCI-H23 lung; OVCAR-5 ovarian; MCF7 breast; SW-620 colon; IGROV1 ovarian; SF-295 CNS.
Holding throughout (assay): NCI-60 cell line screen, 48 h

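A five-concentration, 48-hour dose response in 96-well plates underlies each endpoint, interpolated linearly between surrounding concentrations. At the GI50, growth is halved. TGI is the concentration that stops growth completely.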

On to `O=[N+]([O-])c1ccc2ncccc2c1Cl`, for which the GI50 is 4.69 µM in the assay with ACHN renal; 0.435 µM in the assay on RPMI-8226 leukemia; 3.47 µM in the assay on NCI-H460 lung; 11.2 µM with T-47D breast; 6.96 µM in the assay on NCI-H23 lung; 3.44 µM in the assay with OVCAR-5 ovarian. For the same molecule, the GI50 was 3.55 µM with MCF7 breast, 0.627 µM in the assay on SW-620 colon and 3.89 µM in the assay on IGROV1 ovarian. The TGI in the assay with ACHN renal was 22.3 µM; in the assay on RPMI-8226 leukemia it was 6.57 µM; in the assay on NCI-H460 lung, 16.6 µM; with T-47D breast it was 42.1 µM; in the assay on NCI-H23 lung it was 29.8 µM; with OVCAR-5 ovarian, > 100 µM. In addition, the TGI turned out to be 12.9 µM in the assay on MCF7 breast, 16 µM in the assay on SW-620 colon and 13.8 µM in the assay on IGROV1 ovarian.

On to `O=C(O)C1(Cc2cccc(Nc3nccs3)n2)CCC(Oc2cccc(Cl)c2F)CC1` (configuration not stated), for which the GI50 with ACHN renal was 14.4 µM; in the assay with NCI-H460 lung, 0.344 µM; with T-47D breast, 15.8 µM; in the assay with NCI-H23 lung it was 12.9 µM; with OVCAR-5 ovarian, 13.8 µM; in the assay on MCF7 breast, 0.329 µM. Moreover, the GI50 is 1.31 µM with SF-295 CNS, 4.31 µM with SW-620 colon and 15.9 µM in the assay with IGROV1 ovarian. Further, the TGI was > 100 µM in the assay on ACHN renal; 19.6 µM in the assay on NCI-H460 lung; > 100 µM in the assay on T-47D breast; 34.5 µM in the assay on NCI-H23 lung; > 81.7 µM with OVCAR-5 ovarian; 50.5 µM in the assay on MCF7 breast. Also, the TGI is 27.9 µM with SF-295 CNS, > 58.9 µM in the assay with SW-620 colon and 53.1 µM in the assay with IGROV1 ovarian.

For the molecule `CC(=O)[O-].O=C([CH-]C(=O)c1ccccc1)c1ccccc1.O=C([CH-]C(=O)c1ccccc1)c1ccccc1.[Y+3]`, the GI50 with ACHN renal is 5.52 µM; in the assay on RPMI-8226 leukemia, 4.47 µM; with NCI-H460 lung it was 2.69 µM; in the assay with NCI-H23 lung, 2.2 µM; in the assay on OVCAR-5 ovarian, 17.3 µM; in the assay with SF-295 CNS it was 3.29 µM. Moreover, the GI50 in the assay with SW-620 colon was 6.18 µM; with IGROV1 ovarian it was 6.94 µM. The TGI with ACHN renal was 22.9 µM; with RPMI-8226 leukemia, 33 µM; in the assay with NCI-H460 lung, 18.4 µM; in the assay on NCI-H23 lung it was 11.1 µM; in the assay with OVCAR-5 ovarian, 80.6 µM; with SF-295 CNS it was 18.5 µM. The TGI with SW-620 colon was 46 µM; in the assay on IGROV1 ovarian it was 35.8 µM.

As for `COc1ccc2c(c1)[n+](=O)c(C(=O)/C=C/c1cc(OC)c(OC)c(OC)c1)c(C)n2[O-]`, the GI50 in the assay with ACHN renal was 13.5 µM; in the assay on RPMI-8226 leukemia it was 47.2 µM; with NCI-H460 lung, 23 µM; in the assay on T-47D breast, 22.8 µM; in the assay with OVCAR-5 ovarian, 20.8 µM; with MCF7 breast it was 18 µM. The GI50 is 27.1 µM with SF-295 CNS, > 100 µM in the assay with SW-620 colon and 20.7 µM in the assay with IGROV1 ovarian. The TGI was 28.8 µM with ACHN renal; > 100 µM in the assay with RPMI-8226 leukemia; > 100 µM with NCI-H460 lung; > 100 µM in the assay on T-47D breast; 62.9 µM in the assay with OVCAR-5 ovarian; 88.4 µM in the assay on MCF7 breast. Also, the values for the TGI in the assay with SF-295 CNS, in the assay on SW-620 colon and with IGROV1 ovarian were > 100 µM, > 100 µM and 42 µM, respectively.

In the case of `COC12CC(=O)C(C(C)=O)=C(O)C1(C)c1c(OC(C)=O)c(C)c(O)c(C(C)=O)c1O2` (configuration not stated), the TGI with ACHN renal was 99.2 µM; with RPMI-8226 leukemia, > 100 µM; with NCI-H460 lung, > 100 µM; in the assay on NCI-H23 lung it was 31.3 µM; in the assay with OVCAR-5 ovarian, > 100 µM; in the assay on SF-295 CNS it was > 100 µM. Moreover, the TGI in the assay with SW-620 colon and in the assay with IGROV1 ovarian was > 100 µM throughout.

`O=C([O-])c1ccc(C(=O)[O-])cc1.O=C([O-])c1ccc(C(=O)[O-])cc1.[Mo+2].[Mo+2]`: the GI50 in the assay with ACHN renal, with RPMI-8226 leukemia, in the assay with NCI-H460 lung, in the assay with NCI-H23 lung, in the assay with OVCAR-5 ovarian and in the assay on SF-295 CNS was > 100 µM throughout. The GI50 with SW-620 colon and in the assay with IGROV1 ovarian was > 100 µM each time. For the same molecule, the TGI in the assay with ACHN renal, in the assay on RPMI-8226 leukemia, with NCI-H460 lung, with NCI-H23 lung, in the assay on OVCAR-5 ovarian and in the assay with SF-295 CNS was > 100 µM each time. Further, the TGI with SW-620 colon and in the assay with IGROV1 ovarian was > 100 µM each time.

As for `O=C(OCc1ccc2c(Cl)cc(Cl)c(O)c2n1)c1cc2ccccc2[nH]1`, the GI50 in the assay with ACHN renal is 0.219 µM; in the assay on RPMI-8226 leukemia it was 0.279 µM; with NCI-H460 lung, 1.66 µM; with T-47D breast, 1.49 µM; in the assay on NCI-H23 lung, 1.49 µM; with OVCAR-5 ovarian, 0.65 µM. The GI50 was 1.64 µM in the assay on SF-295 CNS, 0.241 µM in the assay on SW-620 colon and 0.219 µM with IGROV1 ovarian. The TGI in the assay on ACHN renal turned out to be 0.519 µM; in the assay on RPMI-8226 leukemia, 0.828 µM; with NCI-H460 lung, 3.52 µM; in the assay with T-47D breast, 4.35 µM; with NCI-H23 lung, 3.2 µM; in the assay with OVCAR-5 ovarian, 1.97 µM. Also, the TGI is 3.31 µM with SF-295 CNS, 0.613 µM in the assay with SW-620 colon and 0.5 µM in the assay on IGROV1 ovarian.

On to `C=C1C(=O)O[C@H]2[C@H]1CC/C(COC(=O)c1ccc(C#N)cc1)=C\CC[C@@]1(C)O[C@@H]21`, for which the GI50 is 1.85 µM with ACHN renal; 1.5 µM with RPMI-8226 leukemia; 3.46 µM in the assay with NCI-H460 lung; 1.74 µM in the assay with T-47D breast; 2.25 µM in the assay with NCI-H23 lung; 3.06 µM in the assay with OVCAR-5 ovarian. The GI50 with SF-295 CNS is 8.16 µM; with SW-620 colon, 1.27 µM; with IGROV1 ovarian, 1.38 µM. Further, the TGI in the assay on ACHN renal was 4.26 µM; in the assay on RPMI-8226 leukemia, 4.61 µM; in the assay on NCI-H460 lung, 14.5 µM; with T-47D breast it was 5.24 µM; in the assay with NCI-H23 lung, 6 µM; in the assay on OVCAR-5 ovarian it was 9.51 µM. Besides, the TGI was 20.7 µM with SF-295 CNS, 2.88 µM in the assay with SW-620 colon and 4.27 µM in the assay with IGROV1 ovarian.

For `CCOC(=O)NC(=O)c1cn(CCN2CCN(C(=O)CCCCCCCCCCNc3ncnc4nc[nH]c34)CC2)c(=O)[nH]c1=O`, the TGI in the assay with ACHN renal, in the assay on RPMI-8226 leukemia, in the assay with NCI-H460 lung, with NCI-H23 lung, in the assay on OVCAR-5 ovarian and in the assay with SF-295 CNS was > 100 µM throughout. Besides, the TGI in the assay with SW-620 colon and in the assay with IGROV1 ovarian was > 100 µM in each case.

On to `O=C(NCCCCCCCCNC(=O)c1cccc2ccccc12)c1cccc2ccccc12`, for which the TGI is 60.8 µM in the assay with ACHN renal; > 100 µM in the assay with RPMI-8226 leukemia; > 100 µM with NCI-H460 lung; > 79.6 µM in the assay on NCI-H23 lung; > 100 µM in the assay with OVCAR-5 ovarian; > 100 µM in the assay on MCF7 breast. Moreover, the TGI in the assay on SF-295 CNS was > 56.1 µM; with SW-620 colon it was > 100 µM; with IGROV1 ovarian, > 76.1 µM.

For the origin of these results see PubChem BioAssay (NCI).
